{
  "source": "patent US20210353517A1",
  "about": "“PROCESS FOR PRODUCING A BIO-BASED SURFACTANT” (University College Dublin, priority 2018, published 2021)",
  "format_in_all_cases": "physicochemical",
  "key": {"[1]": {"assay": "Surface tension analysis (DuNOUY ring tensiometer)", "settings": "at parity of concentration (w/v), 25° C., relative to SDS", "method": "Surface tension analysis was performed with an interfacial tensiometer Cenco DuNOUY® 70545 model. In this methodology, a ring-shaped steel tool is pulled up from a surfactant solution and the corresponding millinewton per meter (mN/m) of force applied to break the surface tension is indicated. Increasingly diluted surfactant solutions are measured until the reference value of deionised water is reached (72 mN/m). The measurements were performed at 25° C."}, "[2]": {"assay": "Critical micelle concentration by conductivity assay", "settings": "conductivity at 25° C., relative to SDS", "method": "Critical micelle concentration was estimated by a conductivity assay. In this assay a pen type EC-963 model conductivity meter tester was submerged into a milliQ® grade deionised water solution to have a zero reading of pS/cm. Increasing amounts of different surfactant solutions was added to this milliQ® water solution and the conductivity was measured at 25° C. The increasing conductivity is proportional to the surfactant activity. The change of slope in the two linear interpolating curves is an indication of the critical micelle concentration (CMC) point for the specific surfactant (Al-Soufi et al 2012)."}, "[3]": {"assay": "Drop shape analysis (wettability, dynamic contact angle)", "settings": "solution at its CMC added to 20 μL deionised water drop", "method": "The dynamic behaviour of a 20 μL deionised water drop after the addition of an equal volume of surfactant solution at critical micelle concentration was recorded with a video recording system and analysed by a dedicated plug-in (LB-ADSA) of ImageJ® software for image analysis. The sessile drop is positioned on a smooth and plan surface of a borosilicate glass slide without any microdefects. A contour recognition is initially carried out based on a grey-scale analysis of the image. In the second step, a geometrical model describing the drop shape is fitted to the contour. The contact angle is the angle between the calculated drop shape function and the sample surface."}, "Foaming stability": {"assay": "Foaming stability", "settings": "10 s stirring at 1500 rpm, at respective CMC values"}},
  "data": [
    {"smiles": "CCCCCCCCCC(CCOS(=O)(=O)O)OS(=O)(=O)O", "note": "(stereo not drawn) [dodecyl (1,3) disulfate]", "values": [
      {"measurement": "surface tension value better than sodium dodecyl sulfate (SDS)", "setting": "[1]", "value": 4, "unit": "fold"},
      {"measurement": "outperformance of SDS at the specific CMC concentration (change of slope point of conductivity)", "setting": "[2]", "value": 3.5, "unit": "fold"},
      {"measurement": "wettability (speed at which the contact angle of a water drop is broken) versus SDS", "setting": "[3]", "value": "higher that the SDS solution"},
      {"measurement": "foam decrease in volume over time", "setting": "Foaming stability", "value": 2, "unit": "fold"},
      {"measurement": "foam decrease slower than SDS", "setting": "Foaming stability", "value": 3, "unit": "times"},
      {"measurement": "foaming volume higher than SDS", "setting": "Foaming stability", "value": 1.5, "unit": "fold"}
    ]}
  ]
}
